Patent US20260306680A1, “RADIOLABELED COMPOUNDS TARGETING THE PROSTATE-SPECIFIC MEMBRANE ANTIGEN” (PROVINCIAL HEALTH SERVICES AUTHORITY, priority 2022, published 2026)
Like-named read-outs stand apart in the source and are kept apart here. Values belong to the compound of their own block, whether it stands above or below them.

Assays:
[1] = system: glutamate carboxypeptidase II; details: cited from earlier work
LNCaP tumor xenografts = experiment: Ex vivo biodistribution in mice bearing LNCaP tumor xenografts; design: species or system mouse (male NOD-scid IL2Rg^null (NSG)); details: mean ± SD
Experimental: (§1) All imaging and biodistribution studies used male NOD-scid IL2Rg^null (NSG) mice and conducted according to the guidelines established by the Canadian Council on Animal Care and approved by Animal Ethics Committee of the University of British Columbia. For tumor inoculations, mice were anesthetized via inhalation of 2% isoflurane in oxygen and implanted subcutaneously with 5×10^6 LNCaP cells below the left shoulder. Imaging and biodistribution studies were performed only after tumors grew to 5-8 mm in diameter.
(§2) For PET/CT imaging studies, approximately 5 MBq of the ^18F-labeled tracer was injected through the tail vein. While for ex vivo biodistribution studies, mice were injected with around 2 MBq of the ^18F-labeled tracer through the tail vein. Mice were allowed to recover and roam freely in the cages after injecting the tracer. At 45 min post-injection, imaging mouse were sedated again and positioned on the scanner. A 10 min CT scan was conducted first to allow for localization and attenuation correction for later reconstruction of PET images. A 10 min PET image was acquired following CT scan. Heating pads were used during the entire procedure to keep the mice warm and circulate the blood. At 1 h post-injection, all mice for biodistribution study were euthanized with blood drawn from heart, and all tissues of interest were collected, rinsed with PBS, blotted dry, weighed, and counted using an automated gamma counter. The uptake in each organ/tissue was normalized to the injected dose and expressed as the percentage of the injected dose per gram of tissue (% ID/g).
(§3) Representative maximum intensity projection PET images of ^18F-KLF1007-pyridine-BF3 and ^18F-KL01040 acquired at 1 h post-injection from LNCaP tumor-bearing mice is enumerated in Table 4 and shown in FIG. 1. Representative maximum intensity projection PET images of ^18F-KL01120 and ^18F-KL01130 acquired at 1 h post-injection from LNCaP tumor-bearing mice is also enumerated in Table 5 and shown in FIG. 2 (^18F-KL1120) and enumerated in Table 6 and shown in FIG. 3 (^18F-KL01130).

[2] = as above; design: species or system mouse (male NOD-scid IL2Rg^null (NSG)); details: mouse, iv, mean ± SD
Experimental: as §1, §2, §3

[3] = 1 h Blocked (co-injection of 2-PMPA, 0.5 mg)

Structure (SMILES): O=C(O)CC[C@H](NC(=O)N[C@@H](CCCCNC(=O)[C@H](Cc1ccc2ccccc2c1)NC(=O)c1ccc(CNC(=O)[C@H](CCC(=O)O)NC(=O)[C@H](CCC(=O)O)NC(=O)c2ccc(F)nc2)cc1)C(=O)O)C(=O)O [^18F-PSMA-1007]
nonspecific uptake level in most normal tissues ([1]; compared to ^18F-DCFPyL): even higher

Tumor:Muscle uptake ratio (LNCaP tumor xenografts; [3]): 10.4 ± 1.31
Tumour:Blood uptake ratio (LNCaP tumor xenografts; [3]): 1.19 ± 0.12
Tumour:Bone uptake ratio (LNCaP tumor xenografts; [3]): 3.89 ± 1.05
Tumour:Kidney uptake ratio (LNCaP tumor xenografts; [3]): 0.44 ± 0.05
Tumor:Muscle uptake ratio (LNCaP tumor xenografts; 1 h post-injection): 35.7 ± 5.75
Tumour:Blood uptake ratio (LNCaP tumor xenografts; 1 h post-injection): 6.93 ± 1.54
Tumour:Bone uptake ratio (LNCaP tumor xenografts; 1 h post-injection): 14.6 ± 4.27
Tumour:Kidney uptake ratio (LNCaP tumor xenografts; 1 h post-injection): 0.59 ± 0.35
tissue uptake at 1 h ([2]; adrenal glands, 1 h Blocked (co-injection of 2-PMPA, 0.5 mg), read-out: Adrenal Glands uptake): 0.39 ± 0.17 %ID/g
tissue uptake at 1 h ([2]; adrenal glands, 1 h post-injection, read-out: Adrenal Glands uptake): 0.59 ± 0.06 %ID/g
tissue uptake at 1 h ([2]; blood, 1 h Blocked (co-injection of 2-PMPA, 0.5 mg), read-out: Blood uptake): 1.78 ± 0.12 %ID/g
tissue uptake at 1 h ([2]; blood, 1 h post-injection, read-out: Blood uptake): 1.2 ± 0.26 %ID/g
tissue uptake at 1 h ([2]; bone, 1 h Blocked (co-injection of 2-PMPA, 0.5 mg), read-out: Bone uptake): 0.57 ± 0.16 %ID/g
tissue uptake at 1 h ([2]; bone, 1 h post-injection, read-out: Bone uptake): 0.52 ± 0.17 %ID/g
tissue uptake at 1 h ([2]; brain, 1 h Blocked (co-injection of 2-PMPA, 0.5 mg), read-out: Brain uptake): 0.04 %ID/g
tissue uptake at 1 h ([2]; brain, 1 h post-injection, read-out: Brain uptake): 0.04 ± 0.01 %ID/g
tissue uptake at 1 h ([2]; fat, 1 h Blocked (co-injection of 2-PMPA, 0.5 mg), read-out: Fat uptake): 0.33 ± 0.1 %ID/g
tissue uptake at 1 h ([2]; fat, 1 h post-injection, read-out: Fat uptake): 0.22 ± 0.09 %ID/g
tissue uptake at 1 h ([2]; heart, 1 h Blocked (co-injection of 2-PMPA, 0.5 mg), read-out: Heart uptake): 0.45 ± 0.05 %ID/g
tissue uptake at 1 h ([2]; heart, 1 h post-injection, read-out: Heart uptake): 0.34 ± 0.07 %ID/g
tissue uptake at 1 h ([2]; kidneys, 1 h Blocked (co-injection of 2-PMPA, 0.5 mg), read-out: Kidneys uptake): 4.77 ± 0.3 %ID/g
tissue uptake at 1 h ([2]; kidneys, 1 h post-injection, read-out: Kidneys uptake): 19 ± 5.04 %ID/g
tissue uptake at 1 h ([2]; lacrimal glands, 1 h Blocked (co-injection of 2-PMPA, 0.5 mg), read-out: Lacrimal Glands uptake): 0.04 ± 0.02 %ID/g
tissue uptake at 1 h ([2]; lacrimal glands, 1 h post-injection, read-out: Lacrimal Glands uptake): 0.1 ± 0.06 %ID/g
tissue uptake at 1 h ([2]; large intestine, 1 h Blocked (co-injection of 2-PMPA, 0.5 mg), read-out: Large Intestine uptake): 0.26 ± 0.1 %ID/g
tissue uptake at 1 h ([2]; large intestine, 1 h post-injection, read-out: Large Intestine uptake): 0.2 ± 0.1 %ID/g
tissue uptake at 1 h ([2]; liver, 1 h Blocked (co-injection of 2-PMPA, 0.5 mg), read-out: Liver uptake): 0.67 ± 0.07 %ID/g
tissue uptake at 1 h ([2]; liver, 1 h post-injection, read-out: Liver uptake): 0.47 ± 0.06 %ID/g
tissue uptake at 1 h ([2]; lncap tumor, 1 h Blocked (co-injection of 2-PMPA, 0.5 mg), read-out: LNCaP Tumor uptake): 2.11 ± 0.02 %ID/g
tissue uptake at 1 h ([2]; lncap tumor, 1 h post-injection, read-out: LNCaP Tumor uptake): 8.01 ± 0.9 %ID/g
tissue uptake at 1 h ([2]; lungs, 1 h Blocked (co-injection of 2-PMPA, 0.5 mg), read-out: Lungs uptake): 1.22 ± 0.17 %ID/g
tissue uptake at 1 h ([2]; lungs, 1 h post-injection, read-out: Lungs uptake): 0.96 ± 0.19 %ID/g
tissue uptake at 1 h ([2]; muscle, 1 h Blocked (co-injection of 2-PMPA, 0.5 mg), read-out: Muscle uptake): 0.2 ± 0.02 %ID/g
tissue uptake at 1 h ([2]; muscle, 1 h post-injection, read-out: Muscle uptake): 0.34 ± 0.24 %ID/g
tissue uptake at 1 h ([2]; pancreas, 1 h Blocked (co-injection of 2-PMPA, 0.5 mg), read-out: Pancreas uptake): 0.32 ± 0.04 %ID/g
tissue uptake at 1 h ([2]; pancreas, 1 h post-injection, read-out: Pancreas uptake): 0.21 ± 0.05 %ID/g
tissue uptake at 1 h ([2]; salivary glands, 1 h Blocked (co-injection of 2-PMPA, 0.5 mg), read-out: Salivary Glands uptake): 0.49 ± 0.14 %ID/g
tissue uptake at 1 h ([2]; salivary glands, 1 h post-injection, read-out: Salivary Glands uptake): 0.52 ± 0.18 %ID/g
tissue uptake at 1 h ([2]; seminal gland, 1 h Blocked (co-injection of 2-PMPA, 0.5 mg), read-out: Seminal Gland uptake): 0.22 ± 0.06 %ID/g
tissue uptake at 1 h ([2]; seminal glands, 1 h post-injection, read-out: Seminal Glands uptake): 0.15 ± 0.04 %ID/g
tissue uptake at 1 h ([2]; small intestine, 1 h Blocked (co-injection of 2-PMPA, 0.5 mg), read-out: Small Intestine uptake): 2.4 ± 0.36 %ID/g
tissue uptake at 1 h ([2]; small intestine, 1 h post-injection, read-out: Small Intestine uptake): 2.01 ± 0.6 %ID/g
tissue uptake at 1 h ([2]; spleen, 1 h Blocked (co-injection of 2-PMPA, 0.5 mg), read-out: Spleen uptake): 0.31 ± 0.06 %ID/g
tissue uptake at 1 h ([2]; spleen, 1 h post-injection, read-out: Spleen uptake): 0.36 ± 0.09 %ID/g
tissue uptake at 1 h ([2]; stomach, 1 h Blocked (co-injection of 2-PMPA, 0.5 mg), read-out: Stomach uptake): 0.36 ± 0.15 %ID/g
tissue uptake at 1 h ([2]; stomach, 1 h post-injection, read-out: Stomach uptake): 0.19 ± 0.11 %ID/g
tissue uptake at 1 h ([2]; testes, 1 h Blocked (co-injection of 2-PMPA, 0.5 mg), read-out: Testes uptake): 0.41 ± 0.05 %ID/g
tissue uptake at 1 h ([2]; testes, 1 h post-injection, read-out: Testes uptake): 0.29 ± 0.05 %ID/g
tissue uptake at 1 h ([2]; thyroid, 1 h Blocked (co-injection of 2-PMPA, 0.5 mg), read-out: Thyroid uptake): 0.48 ± 0.03 %ID/g
tissue uptake at 1 h ([2]; thyroid, 1 h post-injection, read-out: Thyroid uptake): 0.38 ± 0.16 %ID/g
Structure (SMILES): O=C(O)CCC[C@H](NC(=O)N[C@@H](CCCCNC(=O)[C@H](Cc1c2ccccc2cc2ccccc12)NC(=O)[C@H]1CC[C@H](CNC(=O)CNC(=O)[C@H](CCCCNC(=O)c2ccc(F)nc2)NC(=O)CN(CC(=O)O)CC(=O)O)CC1)C(=O)O)C(=O)O [^18F-KL01130]

Structure (SMILES): O=C(O)CC[C@H](NC(=O)N[C@@H](CCCCNC(=O)c1ccc(F)nc1)C(=O)O)C(=O)O [^18F-DCFPyL]
liver uptake ([1]; reduces sensitivity for detecting metastatic lesions in liver): high
